Reference: US20070227930A1, “Antimicrobial Product Combination” (priority 2006, published 2007)

Test system: allergens
Assay: Evaluation of oxidants and antimicrobials for allergen deactivating ability
Conditions: very dilute solution, on the order of 40-80 ppm
Source text: Presumably the low levels of oxidant are still able to break up the allergen proteins, rendering them biologically inert.

OCl [hypochlorous acid]
Allergen deactivating ability: effectively deactivate allergens
